From ChEMBL document CHEMBL3638563, “Quinazoline compounds as kinase inhibitors” (2014)

How the values were obtained:
[1] = target: Serine/threonine-protein kinase B-raf (Homo sapiens, UniProt P15056); experiment: (§1) Kinase Assay: Inhibition of kinase activity by test compound disclosed herein was estimated by quantifying the amount of [33P] incorporation of substrate in the presence of test compound. Standard assay conditions were 2 ng of recombinant C-Raf or 5 ng of recombinant B-Raf or 5 ng of recombinant B-Raf (V600E) kinase (Upstate Biotechnology) with 500 ng MEK1(K97R) in assay buffer {8 μM ATP, 0.5 μCi [33P]ATP (specific activity 3000 Ci/mmol, PerkinElmer), 50 mM Tris/HCl (pH7.5), and 1 mM EGTA, 1 mM Na3VO4, 1% 2-mercaptoethanol, 0.1% Brij 35, and 0.2 mg/ml BSA} at a final volume of 25 μL. Reactions were incubated at 30° C. for 30 min and stopped by adding 3% phosphoric acid, harvested onto a 96-well GF/B UniFilter (PerkinElmer) using a unifilter harvester (PerkinElmer), and counted with a TopCount microplate scintillation counter (PerkinElmer). The IC50 values of inhibitors were determined after carrying out assays at 3-fold serially diluted concentrations of each compound in duplication.
Sequence of Serine/threonine-protein kinase B-raf (P15056 whole entry): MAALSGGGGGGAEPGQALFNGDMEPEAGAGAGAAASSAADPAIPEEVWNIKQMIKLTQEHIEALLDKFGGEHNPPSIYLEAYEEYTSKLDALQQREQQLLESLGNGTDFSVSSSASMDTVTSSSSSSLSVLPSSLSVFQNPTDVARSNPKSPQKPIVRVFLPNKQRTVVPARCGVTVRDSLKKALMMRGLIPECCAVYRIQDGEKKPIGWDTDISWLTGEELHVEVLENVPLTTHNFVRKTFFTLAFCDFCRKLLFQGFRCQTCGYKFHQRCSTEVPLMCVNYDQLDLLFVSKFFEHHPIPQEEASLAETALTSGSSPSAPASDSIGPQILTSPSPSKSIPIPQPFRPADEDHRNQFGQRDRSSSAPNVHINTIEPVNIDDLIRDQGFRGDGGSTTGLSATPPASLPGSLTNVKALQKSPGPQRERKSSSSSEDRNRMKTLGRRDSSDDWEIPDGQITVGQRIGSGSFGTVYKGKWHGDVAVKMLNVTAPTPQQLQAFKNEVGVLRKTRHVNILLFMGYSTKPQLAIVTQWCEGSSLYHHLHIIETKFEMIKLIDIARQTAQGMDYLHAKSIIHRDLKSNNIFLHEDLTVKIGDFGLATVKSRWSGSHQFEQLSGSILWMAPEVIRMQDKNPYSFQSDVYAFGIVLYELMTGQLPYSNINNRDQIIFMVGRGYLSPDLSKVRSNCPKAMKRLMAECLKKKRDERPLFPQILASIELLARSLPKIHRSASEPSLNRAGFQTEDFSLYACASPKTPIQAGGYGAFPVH

[2] = target: RAF proto-oncogene serine/threonine-protein kinase (Homo sapiens, UniProt P04049); experiment: as §1
Sequence of RAF proto-oncogene serine/threonine-protein kinase (P04049 whole entry): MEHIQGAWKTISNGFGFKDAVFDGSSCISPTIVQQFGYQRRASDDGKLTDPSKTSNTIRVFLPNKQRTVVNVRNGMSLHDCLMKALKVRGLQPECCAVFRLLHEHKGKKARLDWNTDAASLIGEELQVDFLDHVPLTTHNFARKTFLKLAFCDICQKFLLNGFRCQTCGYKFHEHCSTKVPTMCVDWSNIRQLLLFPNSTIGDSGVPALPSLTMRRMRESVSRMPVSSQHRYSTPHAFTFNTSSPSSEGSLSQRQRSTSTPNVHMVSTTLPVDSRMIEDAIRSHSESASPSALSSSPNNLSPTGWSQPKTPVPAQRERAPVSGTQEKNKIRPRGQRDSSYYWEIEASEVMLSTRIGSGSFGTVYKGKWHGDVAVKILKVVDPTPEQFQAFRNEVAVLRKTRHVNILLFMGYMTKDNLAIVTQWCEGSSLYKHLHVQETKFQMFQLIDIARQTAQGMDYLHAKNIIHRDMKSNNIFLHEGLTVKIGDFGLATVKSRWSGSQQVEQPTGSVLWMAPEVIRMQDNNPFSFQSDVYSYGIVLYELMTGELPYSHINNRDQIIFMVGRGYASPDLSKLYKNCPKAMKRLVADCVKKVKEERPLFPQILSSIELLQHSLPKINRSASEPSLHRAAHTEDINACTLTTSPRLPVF

IC50 [1]: 0.251 µM | IC50 [2]: 2.37 µM
Structure (SMILES): Nc1ccc(F)c(-c2ccc3ncnc(Nc4cccc5[nH]ncc45)c3c2)c1
